Converted amounts (≈) assume the structure as drawn.

Common to all, as to experiment: antimicrobial activity, MIC, standard process of Japan Society of Chemotherapy
Holding throughout (assay type): cell-based

For assay [1], the system named is E. coli, NIHJ. Conditions: for MIC: Escherichia coli, read-out: minimum growth inhibitory concentration (MIC). As for the experimental part: (§1) The antimicrobial activities of the compounds of the present invention were determined according to a standard process designated by the Japan Society of Chemotherapy and the minimum growth inhibitory concentrations (MIC) (μg/ml) the compounds were determined.

Assay [2] deals with Pr. mirabilis, IF03849. Conditions: for MIC: Proteus mirabilis, IF03849, Pr. mirabilis, read-out: minimum growth inhibitory concentration (MIC); for minimum growth inhibitory concentration (MIC): Pr. mirabilis. The procedure:
as §1

The subject of assay [3] is Pr. vulgaris, 3167. To be noted: for MIC: Proteus vulgaris, 3167, Pr. vulgaris, read-out: minimum growth inhibitory concentration (MIC); for minimum growth inhibitory concentration (MIC): Pr. vulgaris. The procedure:
as §1

The test system of assay [4] is Ps. aeruginosa, 2063. To be noted: for MIC: Pseudomonas aeruginosa, 2063, Ps. aeruginosa, read-out: minimum growth inhibitory concentration (MIC); for minimum growth inhibitory concentration (MIC): Ps. aeruginosa. As for the experimental part:
as §1

The subject of assay [5] is Ps. aeruginosa, 2128. To be noted: for MIC: Pseudomonas aeruginosa, 2128, Ps. aeruginosa, read-out: minimum growth inhibitory concentration (MIC); for minimum growth inhibitory concentration (MIC): Ps. aeruginosa. As for the experimental part: as §1
Assay [6] relates to Ps. cepacia, IID1340. Conditions: for MIC: Burkholderia cepacia, IID1340, Ps. cepacia, read-out: minimum growth inhibitory concentration (MIC); for minimum growth inhibitory concentration (MIC): Ps. cepacia. As for the experimental part:
as §1

Assay [7] has as its system Ps. maltophilia, IID1275. Conditions: for MIC: Stenotrophomonas maltophilia, IID1275, Ps. maltophilia, read-out: minimum growth inhibitory concentration (MIC); for minimum growth inhibitory concentration (MIC): Ps. maltophilia. As for the experimental part: as §1
The subject of assay [8] is S. aureus, 209P. To be noted: for MIC: Staphylococcus aureus, read-out: minimum growth inhibitory concentration (MIC). The procedure: as §1
In assay [9] the test system is S. epidermidis, 56500. To be noted: for MIC: Staphylococcus epidermidis, 56500, S. epidermidis, read-out: minimum growth inhibitory concentration (MIC); for minimum growth inhibitory concentration (MIC): S. epidermidis. The procedure: as §1
Assay [10] has as its system Ser. marcescens, 13001. Conditions: for MIC: Serratia marcescens, 13001, Ser. marcescens, read-out: minimum growth inhibitory concentration (MIC); for minimum growth inhibitory concentration (MIC): Ser. marcescens. The procedure: as §1
For assay [11], the system named is Sh. flexneri, 2a5503. Conditions: for MIC: Shigella flexneri, read-out: minimum growth inhibitory concentration (MIC). The procedure:
as §1

Assay [12] concerns Str. faecalis, ATCC 19433. To be noted: for MIC: Enterococcus faecalis, ATCC19433, Str. faecalis, read-out: minimum growth inhibitory concentration (MIC); for minimum growth inhibitory concentration (MIC): Str. faecalis. The procedure:
as §1

Assay [13] has as its system Str. pyogenes, G-36. To be noted: for minimum growth inhibitory concentration (MIC): Str. pyogenes; for MIC: Streptococcus pyogenes, G36, Str. pyogenes, read-out: minimum growth inhibitory concentration (MIC). The procedure: as §1

With `CCC(N)C1CCN(c2c(F)cc3c(=O)c(C(=O)O)cn(C4CC4)c3c2F)C1` (stereo not shown) [Example 9, 7-[3-(1-Aminopropyl)-1-pyrrolidinyl]-1-cyclopropyl-6,8-difluoro-1,4-dihydro-4-oxoquinoline-3-carboxylic acid], the MIC in assay [1] was at most 0.05 µg/mL; in assay [2], 0.1 µg/mL (≈ 0.255 µM); in assay [3], at most 0.05 µg/mL; in assay [4], 0.78 µg/mL (≈ 1.99 µM); in assay [5], 0.2 µg/mL (≈ 0.511 µM); in [6] it was 0.39 µg/mL (≈ 0.996 µM). For the same compound, the MIC in assay [7] was 0.1 µg/mL (≈ 0.255 µM); in [8], at most 0.05 µg/mL; in assay [9] it was at most 0.05 µg/mL; in [10] it was at most 0.05 µg/mL; in assay [11], at most 0.05 µg/mL; in assay [12], 0.1 µg/mL (≈ 0.255 µM). The “minimum growth inhibitory concentration (MIC)” value in assay [13] was at most 0.05 µg/mL.
In the case of `CCn1cc(C(=O)O)c(=O)c2cc(F)c(N3CCC(C(C)(C)N)C3)c(F)c21` (stereo not shown) [Example 12, 7-[3-(1-amino-1-methyl)ethyl-1-pyrrolidinyl]-1-ethyl-6,8-difluoro-1,4-dihydro-4-oxoquinoline-3-carboxylic acid], the MIC in [1] was at most 0.05 µg/mL; in assay [2], 0.39 µg/mL (≈ 1.03 µM); in assay [3] it was 0.2 µg/mL (≈ 0.527 µM); in [4] it was 1.56 µg/mL (≈ 4.11 µM); in assay [5] it was 0.39 µg/mL (≈ 1.03 µM); in [6], 1.56 µg/mL (≈ 4.11 µM). Further, the MIC in [7] was 0.39 µg/mL (≈ 1.03 µM); in assay [8], at most 0.05 µg/mL; in assay [9], 0.1 µg/mL (≈ 0.264 µM); in assay [10], 0.39 µg/mL (≈ 1.03 µM); in assay [11], at most 0.05 µg/mL; in assay [12], 0.1 µg/mL (≈ 0.264 µM). Also, the MIC in [13] turned out to be 0.1 µg/mL (≈ 0.264 µM).
For the compound `CC(N)C1CCN(c2nc3c(cc2F)c(=O)c(C(=O)O)cn3C2CC2)C1` (stereo not shown) [Example 5, 7-[3-(1-Aminoethyl)-1-pyrrolidinyl]-1-cyclopropyl-6-fluoro-1,4-dihydro-4-oxo-1,8-naphthyridine-3-carboxylic acid], the MIC in [1] was at most 0.05 µg/mL; in assay [3], 0.05 µg/mL (≈ 0.139 µM); in assay [7] it was 0.39 µg/mL (≈ 1.08 µM); in assay [8], at most 0.05 µg/mL; in assay [9] it was at most 0.05 µg/mL; in assay [11], at most 0.05 µg/mL. The MIC in assay [12] came to 0.2 µg/mL (≈ 0.555 µM); in assay [13] it was 0.39 µg/mL (≈ 1.08 µM). For the same compound, the “minimum growth inhibitory concentration (MIC)” value in assay [2] turned out to be 0.39 µg/mL; in assay [4], 0.78 µg/mL; in assay [5], 6.20 µg/mL; in assay [6] it was 1.56 µg/mL; in assay [10] it was 0.20 µg/mL.
As for `CCC(N)C1CCN(c2c(F)cc3c(=O)c(C(=O)O)cn(C4CC4)c3c2F)C1` (stereo not shown) [Example 22], the “minimum growth inhibitory concentration (MIC)” value is at most 0.05 µg/mL in [1]; 0.10 µg/mL in assay [2]; at most 0.05 µg/mL in assay [3]; 0.39 µg/mL in assay [4]; 0.20 µg/mL in assay [5]; 0.20 µg/mL in assay [6]. Also, the “minimum growth inhibitory concentration (MIC)” value was 0.20 µg/mL in [7]; at most 0.05 µg/mL in assay [8]; at most 0.05 µg/mL in assay [9]; 0.10 µg/mL in assay [10]; at most 0.05 µg/mL in assay [11]; 0.20 µg/mL in assay [12]. Further, the “minimum growth inhibitory concentration (MIC)” value in assay [13] turned out to be 0.20 µg/mL.
Consider `CCC(N)C1CCN(c2c(F)cc3c(=O)c(C(=O)O)cn(C4CC4)c3c2F)C1` (single isomer, unassigned) [Example 21, 1-Cyclopropyl-6,8-difluoro-7-[3-(1aminopropyl)-1-pyrrolidinyl]-1,4-dihydro-4-oxoquinoline-3-carboxylic acid], for which the MIC in assay [1] is at most 0.05 µg/mL; in assay [2] it was 0.1 µg/mL (≈ 0.255 µM); in [3] it was at most 0.05 µg/mL; in [4] it was 0.2 µg/mL (≈ 0.511 µM); in assay [5], 0.1 µg/mL (≈ 0.255 µM); in assay [6], 0.2 µg/mL (≈ 0.511 µM). In addition, the MIC in [7], in assay [8], in assay [9], in assay [10], in [11] and in assay [12] was at most 0.05 µg/mL each time. The MIC in assay [13] is at most 0.05 µg/mL.
As for “1-Cyclopropyl-6,8-difluoro-1,4-dihydro-7-[3-(2S)-pyrrolidinyl)-1-pyrrolidinyl)-1-pyrrolidinyl]-4-oxoquinoline-3-carboxylic acid [Example 17]”, the “minimum growth inhibitory concentration (MIC)” value in assay [1] was at most 0.05 µg/mL; in assay [2] it was 0.20 µg/mL; in assay [3] it was 0.10 µg/mL; in assay [4], 0.39 µg/mL; in assay [5], 0.20 µg/mL; in [6] it was 0.78 µg/mL. The “minimum growth inhibitory concentration (MIC)” value is 0.39 µg/mL in [7]; at most 0.05 µg/mL in assay [8]; 0.10 µg/mL in [9]; 0.10 µg/mL in [10]; at most 0.05 µg/mL in assay [11]; 0.10 µg/mL in assay [12]. Moreover, the “minimum growth inhibitory concentration (MIC)” value in assay [13] was found to be 0.10 µg/mL.
Regarding `CCC(N)C1CCN(c2c(F)cc3c(=O)c(C(=O)O)cn(CC)c3c2F)C1` (single isomer, unassigned) [Example 20, 1-ethyl-6,8-difluoro-7-[3-(1-aminopropyl)-1-pyrrolidinyl]-1,4-dihydro-4-oxoquinoline-3-carboxylic acid], the MIC was at most 0.05 µg/mL in assay [1]; 0.1 µg/mL (≈ 0.264 µM) in assay [2]; at most 0.05 µg/mL in [3]; 0.39 µg/mL (≈ 1.03 µM) in [4]; 0.2 µg/mL (≈ 0.527 µM) in [5]; 0.39 µg/mL (≈ 1.03 µM) in assay [6]. Also, the MIC was 0.2 µg/mL (≈ 0.527 µM) in [7]; at most 0.05 µg/mL in assay [8]; at most 0.05 µg/mL in [9]; 0.1 µg/mL (≈ 0.264 µM) in assay [10]; at most 0.05 µg/mL in [11]; at most 0.05 µg/mL in assay [12]. The MIC in assay [13] was at most 0.05 µg/mL.
